Earlier results as cited in PMC10783014, “Structure-based virtual screening and in vitro validation of inhibitors of cyclic dinucleotide phosphodiesterases ENPP1 and CdnP” (Microbiology Spectrum, 2023).

test system: CdnP; details: cited from earlier work

SMILES | CdnP inhibition
COc1ccc([C@]2(C#N)CC[C@@H](C(=O)O)CC2)cc1OC1CCCC1 [cilomilast] | demonstrated CdnP inhibition
O=C1CCc2cc(OCCCCc3nnnn3C3CCCCC3)ccc2N1 [cilostazol] | demonstrated CdnP inhibition
CN1CC(=O)N2[C@H](c3ccc4c(c3)OCO4)c3[nH]c4ccccc4c3C[C@@H]2C1=O [tadalafil] | demonstrated CdnP inhibition
CCCc1nn(C)c2c(=O)[nH]c(-c3cc(S(=O)(=O)N4CCN(C)CC4)ccc3OCC)nc12 [sildenafil] | demonstrated CdnP inhibition
